Test results taken from ChEMBL document CHEMBL5291721, “A preclinical secondary pharmacology resource illuminates target-adverse drug reaction associations of marketed drugs” (Nat Commun, 2023).

Columns and labels:
[1] = molecular target: Gamma-aminobutyric acid receptor subunit alpha-1 (Rattus norvegicus, UniProt P62813)
[2] = molecular target: Sodium-dependent serotonin transporter (Homo sapiens, UniProt P31645)
[3] = molecular target: T1, 5-hydroxytryptamine receptor 1A (Homo sapiens, UniProt P08908)
T1 sequence (P08908 whole entry): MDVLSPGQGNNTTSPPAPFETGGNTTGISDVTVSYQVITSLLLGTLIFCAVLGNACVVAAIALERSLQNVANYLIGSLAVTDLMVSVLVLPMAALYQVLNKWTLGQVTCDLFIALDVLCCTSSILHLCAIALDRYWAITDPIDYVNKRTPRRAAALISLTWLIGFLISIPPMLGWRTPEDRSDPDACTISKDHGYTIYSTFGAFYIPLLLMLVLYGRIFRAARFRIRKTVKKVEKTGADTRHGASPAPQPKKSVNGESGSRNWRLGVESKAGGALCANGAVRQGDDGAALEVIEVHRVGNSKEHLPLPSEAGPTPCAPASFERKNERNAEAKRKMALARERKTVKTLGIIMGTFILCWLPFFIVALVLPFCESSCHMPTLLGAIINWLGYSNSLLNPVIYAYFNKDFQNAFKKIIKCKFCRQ

[4] = molecular target: T2, Amine oxidase [flavin-containing] A (Homo sapiens, UniProt P21397); type: functional
T2 sequence (P21397 whole entry): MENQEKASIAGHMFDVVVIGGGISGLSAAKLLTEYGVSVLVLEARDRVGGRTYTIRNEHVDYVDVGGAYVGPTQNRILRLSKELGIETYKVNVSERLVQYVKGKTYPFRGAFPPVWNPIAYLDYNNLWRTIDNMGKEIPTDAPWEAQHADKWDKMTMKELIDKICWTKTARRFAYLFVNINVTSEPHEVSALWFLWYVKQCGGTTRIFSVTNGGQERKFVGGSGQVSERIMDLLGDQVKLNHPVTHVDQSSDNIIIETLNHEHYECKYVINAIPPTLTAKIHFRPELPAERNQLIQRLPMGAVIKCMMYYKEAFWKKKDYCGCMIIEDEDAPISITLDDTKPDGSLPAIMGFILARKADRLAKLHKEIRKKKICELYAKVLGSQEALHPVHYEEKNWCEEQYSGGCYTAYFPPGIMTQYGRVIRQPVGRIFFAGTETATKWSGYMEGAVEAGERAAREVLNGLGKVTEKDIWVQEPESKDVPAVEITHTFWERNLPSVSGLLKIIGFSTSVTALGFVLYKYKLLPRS

[5] = molecular target: cGMP-inhibited 3',5'-cyclic phosphodiesterase 3A (Homo sapiens, UniProt Q14432); type: functional
Sequence of cGMP-inhibited 3',5'-cyclic phosphodiesterase 3A (Q14432 whole entry): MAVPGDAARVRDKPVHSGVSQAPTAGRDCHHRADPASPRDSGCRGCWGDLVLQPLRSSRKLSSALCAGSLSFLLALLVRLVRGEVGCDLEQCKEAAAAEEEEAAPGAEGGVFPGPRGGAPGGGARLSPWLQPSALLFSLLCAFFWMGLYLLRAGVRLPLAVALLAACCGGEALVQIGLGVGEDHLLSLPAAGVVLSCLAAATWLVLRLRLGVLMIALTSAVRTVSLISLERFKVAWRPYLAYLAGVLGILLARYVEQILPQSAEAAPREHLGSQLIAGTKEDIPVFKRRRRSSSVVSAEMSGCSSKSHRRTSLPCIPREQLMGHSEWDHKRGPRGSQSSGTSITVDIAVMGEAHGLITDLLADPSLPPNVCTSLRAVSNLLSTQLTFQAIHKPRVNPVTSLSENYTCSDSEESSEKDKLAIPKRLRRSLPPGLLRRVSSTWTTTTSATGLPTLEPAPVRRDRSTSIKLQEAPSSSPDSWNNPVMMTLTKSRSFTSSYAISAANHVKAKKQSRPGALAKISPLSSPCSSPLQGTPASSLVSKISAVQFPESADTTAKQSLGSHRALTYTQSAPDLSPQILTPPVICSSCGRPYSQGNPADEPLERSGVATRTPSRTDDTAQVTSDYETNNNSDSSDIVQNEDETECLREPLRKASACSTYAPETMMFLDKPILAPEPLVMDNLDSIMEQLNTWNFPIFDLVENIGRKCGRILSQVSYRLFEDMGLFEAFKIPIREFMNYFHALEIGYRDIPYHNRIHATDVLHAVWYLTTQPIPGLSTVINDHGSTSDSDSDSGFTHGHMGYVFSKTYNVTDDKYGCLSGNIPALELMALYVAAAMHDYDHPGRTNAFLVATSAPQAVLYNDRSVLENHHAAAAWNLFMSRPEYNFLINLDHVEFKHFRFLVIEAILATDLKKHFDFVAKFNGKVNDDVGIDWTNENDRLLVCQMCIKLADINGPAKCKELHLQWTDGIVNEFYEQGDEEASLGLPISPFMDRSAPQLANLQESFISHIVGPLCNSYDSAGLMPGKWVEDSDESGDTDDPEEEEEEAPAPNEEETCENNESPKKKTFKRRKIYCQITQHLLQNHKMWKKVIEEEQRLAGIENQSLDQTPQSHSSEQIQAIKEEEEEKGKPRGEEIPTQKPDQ

[6] = molecular target: T3, Alpha-1A adrenergic receptor (Homo sapiens, UniProt P35348); type: functional, cell-based
T3 sequence (P35348 whole entry): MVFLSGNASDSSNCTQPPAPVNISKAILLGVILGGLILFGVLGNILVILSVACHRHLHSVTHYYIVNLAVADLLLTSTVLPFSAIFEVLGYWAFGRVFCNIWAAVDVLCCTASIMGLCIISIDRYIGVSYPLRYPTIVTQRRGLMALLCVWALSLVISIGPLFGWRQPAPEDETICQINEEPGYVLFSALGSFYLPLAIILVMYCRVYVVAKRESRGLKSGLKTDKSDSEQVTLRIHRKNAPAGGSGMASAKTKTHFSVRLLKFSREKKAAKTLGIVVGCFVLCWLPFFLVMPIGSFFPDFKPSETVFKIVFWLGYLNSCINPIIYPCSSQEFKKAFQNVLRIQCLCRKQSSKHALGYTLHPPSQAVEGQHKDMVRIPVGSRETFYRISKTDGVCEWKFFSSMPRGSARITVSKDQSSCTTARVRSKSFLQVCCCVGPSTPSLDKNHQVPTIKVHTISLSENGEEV

[7] = molecular target: Sodium-dependent noradrenaline transporter (Homo sapiens, UniProt P23975)
[8] = molecular target: Sodium-dependent dopamine transporter (Homo sapiens, UniProt Q01959)
Sequence of Sodium-dependent dopamine transporter (Q01959 whole entry): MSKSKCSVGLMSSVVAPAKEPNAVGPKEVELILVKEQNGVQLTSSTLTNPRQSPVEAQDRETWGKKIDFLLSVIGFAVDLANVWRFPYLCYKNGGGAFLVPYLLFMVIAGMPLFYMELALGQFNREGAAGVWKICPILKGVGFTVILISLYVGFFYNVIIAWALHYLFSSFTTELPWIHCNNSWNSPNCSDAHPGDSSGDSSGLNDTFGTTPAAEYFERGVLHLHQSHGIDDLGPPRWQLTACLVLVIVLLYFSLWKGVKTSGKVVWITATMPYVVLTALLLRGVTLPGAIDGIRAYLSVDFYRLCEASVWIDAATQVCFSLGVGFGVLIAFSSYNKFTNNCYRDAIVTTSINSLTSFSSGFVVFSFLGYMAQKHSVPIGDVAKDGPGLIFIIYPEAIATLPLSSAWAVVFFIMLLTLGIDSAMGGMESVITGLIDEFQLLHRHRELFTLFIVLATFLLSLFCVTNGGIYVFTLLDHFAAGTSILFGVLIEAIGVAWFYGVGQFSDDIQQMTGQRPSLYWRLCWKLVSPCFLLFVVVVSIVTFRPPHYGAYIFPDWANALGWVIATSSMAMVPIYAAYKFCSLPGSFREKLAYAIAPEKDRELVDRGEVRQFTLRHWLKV

[9] = molecular target: Prostaglandin G/H synthase 1 (Homo sapiens, UniProt P23219); type: functional
Histamine H3 receptor = Histamine H3 receptor (Homo sapiens, UniProt Q9Y5N1)
Sequence of Histamine H3 receptor (Q9Y5N1 whole entry): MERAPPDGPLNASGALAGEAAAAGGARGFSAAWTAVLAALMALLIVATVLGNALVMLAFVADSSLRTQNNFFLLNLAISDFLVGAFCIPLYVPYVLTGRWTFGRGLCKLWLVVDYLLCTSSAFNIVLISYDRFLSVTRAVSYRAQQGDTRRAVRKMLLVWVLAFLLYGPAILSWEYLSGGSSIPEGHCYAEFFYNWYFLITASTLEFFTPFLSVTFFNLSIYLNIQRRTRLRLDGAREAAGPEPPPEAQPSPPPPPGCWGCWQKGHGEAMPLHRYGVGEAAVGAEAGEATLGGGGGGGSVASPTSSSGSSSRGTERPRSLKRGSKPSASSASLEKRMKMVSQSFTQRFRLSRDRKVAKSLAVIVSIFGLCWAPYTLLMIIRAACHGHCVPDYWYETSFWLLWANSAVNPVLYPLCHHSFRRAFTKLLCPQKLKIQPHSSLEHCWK

[10] = molecular target: 3',5'-cyclic-AMP phosphodiesterase 4A (Homo sapiens, UniProt P27815); type: functional
Sequence of 3',5'-cyclic-AMP phosphodiesterase 4A (P27815 whole entry): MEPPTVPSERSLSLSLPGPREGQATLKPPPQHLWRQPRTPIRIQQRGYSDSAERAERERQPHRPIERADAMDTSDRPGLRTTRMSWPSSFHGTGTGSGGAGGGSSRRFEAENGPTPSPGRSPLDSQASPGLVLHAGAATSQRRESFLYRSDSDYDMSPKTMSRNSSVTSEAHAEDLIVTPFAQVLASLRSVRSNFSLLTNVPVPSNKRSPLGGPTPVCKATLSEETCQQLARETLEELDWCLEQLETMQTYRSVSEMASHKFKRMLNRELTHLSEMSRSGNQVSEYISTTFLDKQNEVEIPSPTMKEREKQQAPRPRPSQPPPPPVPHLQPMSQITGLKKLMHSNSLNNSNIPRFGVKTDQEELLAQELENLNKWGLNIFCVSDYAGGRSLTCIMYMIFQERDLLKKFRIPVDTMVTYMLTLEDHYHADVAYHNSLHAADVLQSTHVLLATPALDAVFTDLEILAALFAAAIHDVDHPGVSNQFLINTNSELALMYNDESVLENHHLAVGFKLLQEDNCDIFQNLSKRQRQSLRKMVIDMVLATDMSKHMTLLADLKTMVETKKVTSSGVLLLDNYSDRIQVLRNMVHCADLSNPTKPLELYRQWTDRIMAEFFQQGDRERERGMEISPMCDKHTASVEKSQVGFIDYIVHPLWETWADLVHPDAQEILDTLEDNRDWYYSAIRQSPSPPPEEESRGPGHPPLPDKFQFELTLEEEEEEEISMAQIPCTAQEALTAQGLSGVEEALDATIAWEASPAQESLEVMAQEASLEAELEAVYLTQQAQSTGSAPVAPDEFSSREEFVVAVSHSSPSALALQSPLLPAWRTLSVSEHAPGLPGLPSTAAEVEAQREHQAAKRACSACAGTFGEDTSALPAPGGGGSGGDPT

[11] = molecular target: Beta-1 adrenergic receptor (Homo sapiens, UniProt P08588); type: functional
Sequence of Beta-1 adrenergic receptor (P08588 whole entry): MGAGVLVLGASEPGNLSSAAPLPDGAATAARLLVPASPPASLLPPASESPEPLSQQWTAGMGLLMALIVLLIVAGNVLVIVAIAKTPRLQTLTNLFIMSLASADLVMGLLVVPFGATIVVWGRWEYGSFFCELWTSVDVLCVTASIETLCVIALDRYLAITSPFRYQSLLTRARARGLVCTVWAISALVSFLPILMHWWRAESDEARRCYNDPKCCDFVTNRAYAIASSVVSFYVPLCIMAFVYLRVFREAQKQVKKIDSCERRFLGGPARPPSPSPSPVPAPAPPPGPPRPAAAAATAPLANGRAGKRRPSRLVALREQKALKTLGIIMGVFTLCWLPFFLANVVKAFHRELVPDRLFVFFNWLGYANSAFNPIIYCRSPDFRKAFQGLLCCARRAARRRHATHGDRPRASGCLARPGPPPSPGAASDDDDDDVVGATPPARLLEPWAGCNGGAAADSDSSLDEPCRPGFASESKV
Also: assay procedure not described here.

Sequence of Sodium-dependent serotonin transporter (P31645 whole entry): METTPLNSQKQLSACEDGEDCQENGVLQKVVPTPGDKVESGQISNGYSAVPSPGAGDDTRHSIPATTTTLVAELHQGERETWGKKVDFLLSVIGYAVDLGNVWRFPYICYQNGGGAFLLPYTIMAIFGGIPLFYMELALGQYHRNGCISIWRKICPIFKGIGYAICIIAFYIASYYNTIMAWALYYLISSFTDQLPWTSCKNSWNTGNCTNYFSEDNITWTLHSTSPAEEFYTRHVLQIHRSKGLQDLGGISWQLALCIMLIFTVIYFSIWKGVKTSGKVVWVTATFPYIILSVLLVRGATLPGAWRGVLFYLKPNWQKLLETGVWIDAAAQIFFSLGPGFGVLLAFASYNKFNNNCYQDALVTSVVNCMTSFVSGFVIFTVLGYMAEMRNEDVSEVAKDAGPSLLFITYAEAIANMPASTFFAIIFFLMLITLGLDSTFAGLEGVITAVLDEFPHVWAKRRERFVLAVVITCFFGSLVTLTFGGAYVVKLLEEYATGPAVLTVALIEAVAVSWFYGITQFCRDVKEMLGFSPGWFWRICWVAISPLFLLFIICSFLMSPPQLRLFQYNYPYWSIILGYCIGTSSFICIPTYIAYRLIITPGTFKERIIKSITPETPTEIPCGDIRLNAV
Sequence of Gamma-aminobutyric acid receptor subunit alpha-1 (P62813 whole entry): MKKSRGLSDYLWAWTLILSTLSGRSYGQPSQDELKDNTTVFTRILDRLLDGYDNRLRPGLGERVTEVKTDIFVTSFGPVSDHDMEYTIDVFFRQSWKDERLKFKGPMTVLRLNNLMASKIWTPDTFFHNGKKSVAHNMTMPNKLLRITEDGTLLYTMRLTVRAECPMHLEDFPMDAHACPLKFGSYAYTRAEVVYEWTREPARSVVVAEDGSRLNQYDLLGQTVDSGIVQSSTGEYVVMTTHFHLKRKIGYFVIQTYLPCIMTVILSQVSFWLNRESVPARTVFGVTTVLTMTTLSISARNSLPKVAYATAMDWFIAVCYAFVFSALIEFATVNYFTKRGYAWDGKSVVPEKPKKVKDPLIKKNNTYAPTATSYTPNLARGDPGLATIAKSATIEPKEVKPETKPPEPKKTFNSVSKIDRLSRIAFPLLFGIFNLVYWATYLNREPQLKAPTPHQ

Compound | AC50 [1] | AC50 [2] | AC50 [3] | AC50 [4] | AC50 [5] | AC50 [6] | AC50 [7] | AC50 [8] | AC50 [9] | AC50 (Histamine H3 receptor) | AC50 [10] | AC50 [11]
Cc1cc(NS(=O)(=O)c2ccc(N)cc2)nc(C)n1 [SULFISOMIDINE] | > 30 µM | > 30 µM | > 30 µM | > 30 µM | > 30 µM | > 30 µM | > 30 µM | > 30 µM | > 30 µM | > 30 µM | 3.58 µM | –
CN(C)CC/C=C1\c2ccccc2CSc2ccccc21 [DOTHIEPIN] | – | – | – | – | – | – | – | – | – | – | – | > 30 µM
CC(C)(C)C(=O)OCOC(=O)[C@@H]1N2C(=O)[C@@H](NC(=O)[C@H](N)c3ccccc3)[C@H]2SC1(C)C [PIVAMPICILLIN] | > 30 µM | > 30 µM | > 30 µM | > 30 µM | > 30 µM | > 30 µM | > 30 µM | > 30 µM | > 30 µM | > 30 µM | > 30 µM | –
Clc1cc(Cl)c(OCC#CI)cc1Cl [HALOPROGIN] | > 30 µM | – | > 30 µM | > 30 µM | > 30 µM | > 30 µM | 5.12 µM | 6.43 µM | > 30 µM | > 30 µM | > 30 µM | –
Cc1oc(=O)oc1CN1CCN(c2cc3c(cc2F)c(=O)c(C(=O)O)c2n3C(C)S2)CC1 (stereo unspecified) [PRULIFLOXACIN] | > 30 µM | > 30 µM | > 30 µM | > 30 µM | > 30 µM | – | > 30 µM | > 30 µM | > 30 µM | > 30 µM | > 30 µM | –
Cc1cc(OP(=O)(O)O)c2ccccc2c1OP(=O)(O)O [MENADIOL SODIUM DIPHOSPHATE] | > 30 µM | > 30 µM | > 30 µM | > 30 µM | > 30 µM | > 30 µM | > 30 µM | > 30 µM | > 30 µM | > 30 µM | > 30 µM | –
COc1cc2nc(N3CCN(C(=O)c4ccco4)CC3)nc(N)c2cc1OC [PRAZOSIN] | > 30 µM | – | – | > 30 µM | > 30 µM | – | > 30 µM | 30 µM | > 30 µM | > 30 µM | > 30 µM | > 10 µM
COc1ccccc1N1CCN(CC(O)COc2cccc3ccccc23)CC1 (stereo unspecified) [NAFTOPIDIL] | > 30 µM | 1.43 µM | 0.0086 µM | > 30 µM | > 30 µM | – | 6.01 µM | 4.46 µM | > 30 µM | > 30 µM | > 30 µM | 1.1 µM
O=c1[nH]c(=O)n(C2CCCO2)cc1F (stereo unspecified) [TEGAFUR] | > 30 µM | – | > 30 µM | > 30 µM | > 30 µM | > 30 µM | > 30 µM | > 30 µM | > 30 µM | > 30 µM | > 30 µM | –
C=CCCCCCCCCC(=O)O [UNDECYLENIC ACID] | > 30 µM | > 30 µM | > 30 µM | > 30 µM | > 30 µM | – | > 30 µM | > 30 µM | > 30 µM | > 30 µM | > 30 µM | –
CN(C)CCc1c[nH]c2ccc(C[C@H]3COC(=O)N3)cc12 [ZOLMITRIPTAN] | – | – | – | – | – | – | – | – | – | – | – | > 30 µM
CN(C)CCC=C1c2ccccc2C=Cc2ccccc21 [CYCLOBENZAPRINE] | – | – | – | – | – | – | – | – | – | – | – | > 10 µM
Cc1cc(C)c(NC(=O)CN(CC(=O)O)CC(=O)O)c(C)c1Br [MEBROFENIN] | > 30 µM | > 30 µM | > 30 µM | > 30 µM | > 30 µM | – | > 30 µM | > 30 µM | > 30 µM | > 30 µM | > 30 µM | –
CC[C@H]1CN2CCc3cc(OC)c(OC)cc3[C@@H]2C[C@@H]1C[C@H]1NCCc2cc(OC)c(OC)cc21 [EMETINE] | > 30 µM | – | 22.7 µM | > 30 µM | > 30 µM | – | > 30 µM | > 30 µM | > 30 µM | > 30 µM | > 30 µM | > 30 µM
